The structures appear in SMILES notation.

Among the data in patent US7094801B2, “Chalcone derivatives and their use to treat diseases” (Atherogenics, Inc., priority 2001, dated 2006) are melting point and IC50 values, retold here.

The test system of one data set is VCAM-1. The data set can be described thus: In Vitro VCAM-1 Assay (TNF-α stimulated HAEC or HPAEC, cell ELISA). As to conditions: TNF-α (1 ng/ml) stimulated HAEC or HPAEC, approximately 16 hours. The data set is classed as cell-based, human. On the procedure:
Cell Culture and compound dosing: Cultured primary human aortic (HAEC) or pulmonary (HPAEC) endothelial cells were obtained from Clonetics, Inc., and were used below passage 9. Cells were seeded in 96 well plates such that they would reach 90–95% confluency by the following day. On the following day the cells were stimulated with TNF-α (1 ng/ml) in the presence or absence of compounds dissolved in DMSO such that the final concentration of DMSO is 0.25% or less. To establish a dose curve for each compound, four concentrations in 2- to 5-fold increments were used. Cells were exposed to TNF-α and compounds for approximately 16 hours. The next day the cells were examined under microscope to score for visual signs of toxicity or cell stress.
Following 16 hr exposure to TNF-α and compound the media was discarded and the cells were washed once with Hanks Balanced Salt Solution (HBSS)/Phosphate buffered saline (PBS) (1:1). Primary antibodies against VCAM-1 (0.25 μg/ml in HBSS/PBS+5% FBS) were added and incubated for 30–60 minutes at 37° C. Cells were washed with HBSS/PBS three times, and secondary antibody Horse Radish Peroxidase (HRP)-conjugated goat anti-mouse IgG (1:500 in HBSS/PBS+5% FBS) were added and incubated for 30 minutes at 37° C. Cells were washed with HBSS/PBS four time and TMB substrate were added and incubated at room temperature in the dark until there was adequate development of blue color. The length of time of incubation was typically 5–15 minutes. 2N sulfuric acid was added to stop the color development and the data was collected by reading the absorbance on a BioRad ELISA plate reader at OD 450 nm. The results are expressed as IC50 values (the concentration (micromolar) of compound required to inhibit 50% of the maximal response of the control sample stimulated by TNF-α only).
(In an ELISA, binding on a coated surface is turned into a signal by an enzyme label.)

As for `COc1cc(OC)c(-c2nccs2)cc1/C=C/C(=O)c1ccc(C(=O)O)cc1` [Example 55, 4-[3E-(2,4-Dimethoxy-5-thiazol-2-yl-phenyl)-acryloyl]-benzoic acid], the melting point was above 260 °C. The same compound gave an IC50 in the data set on VCAM-1 (Homo sapiens, 16 h) below 5 µM.
`COc1ccc(/C=C/C(=O)c2ccc(C(=O)O)cc2)cc1-c1cccs1` [Example 41, 4-[3E-(4-Methoxy-3-thiophen-2-yl-phenyl)-acryloyl]-benzoic acid] had a melting point of 219 to 220 °C. In the data set on VCAM-1 (Homo sapiens, 16 h), this compound showed an IC50 below 5 µM.
Compound `COc1cc(OC)c(-c2cc3ccccc3s2)cc1/C=C/C(=O)c1ccc(C(N)=O)cc1` [Example 93, 4-[3E-(5-Benzo[b]thiophen-2-yl-2,4-dimethoxy-phenyl)-acryloyl]-benzamide] gave a melting point of 240 to 241 °C. Also, the IC50 with VCAM-1 (Homo sapiens, 16 h) was below 1 µM.
For `COCCOCCOc1cc(OC)c(/C=C/C(=O)c2ccc(C(=O)O)cc2)cc1-c1cccs1` [Example 49, 4-(3E-{2-Methoxy-4-[2-(2-methoxy-ethoxy)-ethoxy]-5-thiophen-2-yl-phenyl}-acryloyl)-benzoic acid], in that order: 174 to 175 °C and below 10 µM.
`COc1cc(OC)c(-c2cncnc2)cc1/C=C/C(=O)c1ccc(C(=O)O)cc1` [Example 31, 4-[3E-(2,4-Dimethoxy-5-pyrimidin-5-yl-phenyl)-acryloyl]-benzoic acid]: the melting point was above 260 °C. The compound further returned an IC50 with VCAM-1 (Homo sapiens, 16 h) above 10 µM.
`COCCOCCOCCOc1cc(OC)c(-c2cccs2)cc1/C=C/C(=O)c1ccc(C(=O)O)cc1` [Example 68, 4-[3E-(4-Methoxy-2-{2-[2-(2-methoxy-ethoxy)-ethoxy]-ethoxy}-5-thiophen-2-yl-phenyl)-acryloyl]-benzoic acid] gave a melting point of 137 to 138 °C. For the same compound, the IC50 with VCAM-1 (Homo sapiens, 16 h) is below 5 µM.
`CCOC(=O)CNC(=O)Nc1ccc(C(=O)/C=C/c2ccc(-c3cccs3)cc2)cc1` [Example 15, (3-{4-[3E-(4-Thiophen-2-yl-phenyl)-acryloyl]-phenyl}-ureido)-acetic acid ethyl ester] came in with a melting point of 209 to 212 °C. For the same compound, in the data set on VCAM-1 (Homo sapiens, 16 h), the IC50 is above 10 µM.
Turning to `O=C(O)c1ccc(C(=O)/C=C/c2ccc(-c3cncnc3)cc2)cc1` [Example 4, 4-[3E-(4-Pyrimidin-5-yl-phenyl)-acryloyl]-benzoic acid], the melting point is above 260 °C. This compound also had an IC50 in the data set with VCAM-1 (Homo sapiens, 16 h) below 10 µM.
The compound `COc1cc(OC)c(-c2c[nH]c(C3CC3)n2)cc1/C=C/C(=O)c1ccc(S(N)(=O)=O)cc1` [Example 111, 4-{3E-[5-(2-Cyclopropyl-1H-imidazol-4-yl)-2,4-dimethoxy-phenyl]-acryloyl}-benzenesulfonamide] gave a melting point of 156 to 160 °C. In the data set on VCAM-1 (Homo sapiens, 16 h), the IC50 is above 10 µM.
Consider `COc1cc(OCCCN2CCOCC2)c(/C=C/C(=O)c2ccc(C(=O)O)cc2)cc1-c1cccs1.Cl` [Example 66, 4-{3E-[4-Methoxy-2-(3-morpholin-4-yl-propoxy)-5-thiophen-2-yl-phenyl]-acryloyl}-benzoic acid, hydrochloride], for which the melting point is 188 to 191 °C (dec.). In the data set on VCAM-1 (Homo sapiens, 16 h), this compound had an IC50 below 1 µM.
As for `COc1cc(/C=C/C(=O)c2ccc(N)cc2)cc(-c2cccs2)c1OC` [Example 11, 1-(4-Amino-phenyl)-3E-(3,4-dimethoxy-5-thiophen-2-yl-phenyl)-propenone], the melting point lay within 67 to 71 °C. Moreover, the IC50 with VCAM-1 (Homo sapiens, 16 h) was below 5 µM.
The corresponding values for `COc1cc(OC)c(-c2cc3ccccc3s2)cc1/C=C/C(=O)c1ccc(C(C)=O)cc1` [Example 108, 1-(4-Acetyl-phenyl)-3E-(5-benzo[b]thiophen-2-yl-2,4-dimethoxy-phenyl)-propenone] are 165 to 167 °C and below 10 µM.
The corresponding values for `O=C(O)c1ccc(C(=O)/C=C/c2cccc(-c3cccs3)c2)cc1` [Example 42, 4-[3E-(3-Thiophen-2-yl-phenyl)-acryloyl]-benzoic acid] are 238 °C (dec.) and below 5 µM.
`COc1cc(OCc2ccccn2)c(/C=C/C(=O)c2ccc(S(N)(=O)=O)cc2)cc1-c1cccs1` [Example 114, 4-{3E-[4-Methoxy-2-(pyridin-2-ylmethoxy)-5-thiophen-2-yl-phenyl]-acryloyl}-benzenesulfonamide] came in with a melting point of 188 to 189 °C. In addition, the IC50 with VCAM-1 (Homo sapiens, 16 h) was below 5 µM.
Take `CCOC(=O)CNC(=O)N(C(=O)NCC(=O)OCC)c1ccc(C(=O)/C=C/c2cc(OC)c(OC)c(-c3cccs3)c2)cc1` [Example 16, (3-[Ethoxycarbonylmethylaminocarbonyl]-3-{4-[3E-(3,4-dimethoxy-5-thiophen-2-yl-phenyl)-acryloyl]-phenyl}-ureido)-acetic acid ethyl ester]: the melting point is 83 to 86 °C. In the data set on VCAM-1 (Homo sapiens, 16 h), this compound showed an IC50 below 5 µM.
As for `COc1ccc(-c2cccs2)cc1/C=C/C(=O)c1ccc(C(=O)O)cc1` [Example 45, 4-[3E-(2-Methoxy-5-thiophen-2-yl-phenyl)-acryloyl]-benzoic acid], the melting point fell in the range of 195 to 196 °C. The half-inhibitory concentration (IC50) with VCAM-1 (Homo sapiens, 16 h) was below 5 µM.
In turn, `COc1cc(OCC2CC2)c(/C=C/C(=O)c2ccc(C(=O)O)cc2)cc1-c1cccs1` [Example 32, 4-[3E-(2-Cyclopropylmethoxy-4-methoxy-5-thiophen-2-yl-phenyl)-acryloyl]-benzoic acid] displayed a melting point of 187 to 191 °C. The same compound registered an IC50 in the data set on VCAM-1 (Homo sapiens, 16 h) below 5 µM.
Compound `O=C(O)c1ccc(/C=C/C(=O)c2ccc(-c3cccs3)cc2)cc1` [Example 18, 4-[3-{4-(thien-2-yl)-phenyl}-3-oxo-E-propenyl]-benzoic acid] came in with a melting point of 260 to 265 °C. Also, the IC50 in the data set with VCAM-1 (Homo sapiens, 16 h) was below 5 µM.
`COc1cc(OC)c(-c2cccn2C(=O)OC(C)(C)C)cc1/C=C/C(=O)c1ccc(C(=O)O)cc1` [Example 57, 2-{5-[3-(4-Carboxy-phenyl)-3-oxo-E-propenyl]-2,4-dimethoxy-phenyl}-pyrrole-1-carboxylic acid tert-butyl ester] came in with a melting point of 205 to 207 °C. The same compound displayed an IC50 with VCAM-1 (Homo sapiens, 16 h) below 5 µM.
Consider `O=C(/C=C/c1ccc(-c2cccs2)cc1)c1ccc(S)cc1` [Example 22, 1-(4-Mercapto-phenyl)-3E-(4-thiophen-2-yl-phenyl)-propenone], for which the melting point is > 110 °C (dec.). In the data set on VCAM-1 (Homo sapiens, 16 h), this compound returned an IC50 above 10 µM.
The corresponding values for `COc1cc(OC)c(-c2ccc(C)s2)cc1/C=C/C(=O)c1ccc(C(=O)O)cc1` [Example 40, 4-{3E-[2,4-Dimethoxy-5-(5-methyl-thiophen-2-yl)-phenyl]-acryloyl}-benzoic acid] are 213 to 215 °C and below 1 µM.
Consider `COc1cc(OC)c(-c2cc3ccccc3s2)cc1/C=C/C(=O)c1ccccc1C(=O)O` [Example 7, 2-[3E-(5-Benzo[b]thiophen-2-yl-2,4-dimethoxy-phenyl)-acryloyl]-benzoic acid], for which the melting point was 220 to 223 °C (dec.). The IC50 in the data set on VCAM-1 was below 1 µM.
Compound `COc1cc(OC)c(-c2cc3ccccc3s2)cc1/C=C/C(=O)c1ccc(Nc2c(N)c(=O)c2=O)cc1` [Example 102, 3-Amino-4-{4-[3E-(5-benzo[b]thiophen-2-yl-2,4-dimethoxy-phenyl)-acryloyl]-phenylamino}-cyclobut-3-ene-1,2-dione] yielded a melting point above 260 °C. The compound also registered an IC50 in the data set on VCAM-1 (Homo sapiens, 16 h) above 10 µM.
On to `COc1cc(OCc2c(C)noc2C)c(/C=C/C(=O)c2ccc(C(=O)O)cc2)cc1-c1cccs1` [Example 62, 4-{3E-[2-(3,5-Dimethyl-isoxazol-4-ylmethoxy)-4-methoxy-5-thiolphen-2-yl-phenyl]-acryloyl}-benzoic acid], for which the melting point is 213 to 215 °C. For the same compound, in the data set with VCAM-1 (Homo sapiens, 16 h), the IC50 was below 5 µM.
The corresponding values for `COc1cc(OCC(CO)CO)c(-c2cccs2)cc1/C=C/C(=O)c1ccc(C(=O)O)cc1` [Example 50, 4-{3E-[4-(3-Hydroxy-2-hydroxymethyl-propoxy)-2-methoxy-5-thiophen-2-yl-phenyl]-acryloyl}-benzoic acid] are 199 to 201 °C and above 10 µM.
For `COc1cc(OCCCN2CCOCC2)c(/C=C/C(=O)c2ccc(C(N)=O)cc2)cc1-c1cccs1` [Example 94, 4-{3E-[4-Methoxy-2-(3-morpholin4-yl-propoxy)-5-thiophen-2-yl-phenyl]-acryloyl}-benzamide], in that order: 81 to 83 °C and below 1 µM.
For the compound `COc1cc(-c2cccs2)ccc1C(=O)/C=C/c1ccc(C(=O)O)cc1` [Example 19, 4-[3-(2-Methoxy-4-thiophen-2-yl-phenyl)-3-oxo-E-propenyl]-benzoic acid], the melting point lay in the range of 193 to 195 °C. In the data set on VCAM-1 (Homo sapiens, 16 h), the IC50 is below 1 µM.
Take `COc1cc(OCCCN2CCOCC2)c(/C=C/C(=O)c2ccc(S(N)(=O)=O)cc2)cc1-c1cccs1` [Example 85, 4-{3E-[4-Methoxy-2-(3-morpholin-4-yl-propoxy)-5-thiophen-2-yl-phenyl]-acryloyl}-benzenesulfonamide]: the melting point was in the range of 193 to 196 °C. Further, in the data set on VCAM-1 (Homo sapiens, 16 h), the half-inhibitory concentration (IC50) was below 1 µM.

The melting point is the temperature of the solid-liquid transition. Broadly, the IC50 is the concentration at which inhibition is half-maximal. Low readings indicate inhibition by little substance, high ones a need for much substance.
